These are literature values, as cited in US20090253744A1, “Acylated piperidine derivatives as melanocortin-4 receptor modulators” (priority 2006, published 2009).

Series [1] concerns males with psychogenic erectile dysfunction. Particulars: injected intramuscularly or subcutaneously.
Series [2] deals with erectile dysfunction. Particulars: in vivo.

In the case of “Ac-Nle-c[Asp-His-DPhe-Arg-Trp-Lys]-NH2 [MT-II]”, in series [1], the response rate was 75%.
For the compound `CCCc1nn(C)c2c(=O)[nH]c(-c3cc(S(=O)(=O)N4CCN(C)CC4)ccc3OCC)nc12` [Sildenafil], the “effective in % of patients” value in series [2] is “about 70%”.
